{"source": "patent US6737383B1", "about": "“Herbicidal oxadiazolidines” (priority 1999, dated 2004)", "key": {"smallflower flatsedge": {"test_system": "smallflower flatsedge", "test": "Test B flood test smallflower flatsedge", "assay_type": "in vivo, Cyperus difformis", "how_it_was_run": "(§1)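 Each value is a visual injury score relative to controls, with 10 meaning complete control and 0 no effect. Evaluation took place twelve to sixteen days after the 2-leaf-stage plants were treated and kept in the greenhouse.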"}, "surinam grass": {"test_system": "surinam grass", "test": "Test B pre/postemergence surinam grass", "assay_type": "in vivo, Brachiaria decumbens", "how_it_was_run": "(§2)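 Herbicidal effect was estimated by eye on a ten-point control scale after plants spent twelve to sixteen days in a greenhouse following soil or foliar treatment. Foliar sprays targeted plants at one to four leaves; all doses were formulated in a non-phytotoxic solvent with surfactant.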"}, "cocklebur": {"test_system": "cocklebur", "test": "Test B pre/postemergence cocklebur", "assay_type": "in vivo, Xanthium strumarium", "how_it_was_run": "as §2"}, "sugar beet": {"test_system": "sugar beet", "test": "Test B pre/postemergence sugar beet", "assay_type": "in vivo, Beta vulgaris", "how_it_was_run": "as §2"}, "blackgrass": {"test_system": "blackgrass", "test": "Test B pre/postemergence blackgrass", "assay_type": "in vivo, Alopecurus myosuroides", "how_it_was_run": "as §2"}, "soybean": {"test_system": "soybean", "test": "Test B pre/postemergence soybean", "assay_type": "in vivo, Glycine max", "how_it_was_run": "as §2"}, "wild oat": {"test_system": "wild oat", "test": "Test B pre/postemergence wild oat", "assay_type": "in vivo, Avena fatua", "how_it_was_run": "as §2"}, "rice": {"test_system": "rice", "test": "Test B flood test rice", "assay_type": "in vivo, Oryza sativa", "how_it_was_run": "as §1"}, "corn": {"test_system": "corn", "test": "Test B pre/postemergence corn", "assay_type": "in vivo, Zea mays", "how_it_was_run": "as §2"}, "crabgrass": {"test_system": "crabgrass", "test": "Test B pre/postemergence crabgrass", "assay_type": "in vivo, Digitaria sanguinalis", "how_it_was_run": "as §2"}, "bedstraw": {"test_system": "bedstraw", "test": "Test B pre/postemergence bedstraw", "assay_type": "in vivo, Galium aparine", "how_it_was_run": "as §2"}, "purple nutsedge": {"test_system": "purple nutsedge", "test": "Test B pre/postemergence purple nutsedge", "assay_type": "in vivo, Cyperus rotundus", "conditions": "Postemergence", "how_it_was_run": "as §2"}, "duck salad": {"test_system": "duck salad", "test": "Test B flood test duck salad", "assay_type": "in vivo, Heteranthera limosa", "how_it_was_run": "as §1"}, "bamyardgrass": {"test_system": "bamyardgrass", "test": "Test B flood test barnyardgrass", "assay_type": "in vivo, Echinochloa crus-galli", "how_it_was_run": "as §1"}, "wheat": {"test_system": "wheat", "test": "Test B pre/postemergence wheat", "assay_type": "in vivo, Triticum aestivum", "how_it_was_run": "as §2"}, "velvetleaf": {"test_system": "velvetleaf", "test": "Test B pre/postemergence velvetleaf", "assay_type": "in vivo, Abutilon theophrasti", "how_it_was_run": "as §2"}, "[1]": {"conditions": "Postemergence, Rate 1000 g/ha, scale 0 to 10 (0 no effect, 10 complete control)"}, "[2]": {"conditions": "Rate 125 g/ha, Postemergence section (flood test species), scale 0 to 10, 0 no effect, 10 complete control"}, "[3]": {"conditions": "flood test, listed under Postemergence, Rate 250 g/ha, scale 0 to 10, 0 no effect, 10 complete control"}, "[4]": {"conditions": "Postemergence, Rate 250 g/ha, scale 0 to 10, 0 no effect, 10 complete control"}, "[5]": {"conditions": "Preemergence, Rate 125 g/ha, scale 0 to 10 (0 no effect, 10 complete control)"}, "[6]": {"conditions": "Preemergence, Rate 250 g/ha, scale of 0 to 10 where 0 is no effect and 10 is complete control"}, "[7]": {"conditions": "Preemergence, Rate 500 g/ha, scale 0 (no effect) to 10 (complete control)"}, "[8]": {"conditions": "Rate 125 g/ha, Postemergence, scale 0 to 10, 0 no effect, 10 complete control"}, "[9]": {"conditions": "Rate 500 g/ha, Postemergence, 0 to 10 scale (0 no effect, 10 complete control)"}, "[10]": {"conditions": "Rate 1000 g/ha, Preemergence, scale 0 to 10 (0 no effect, 10 complete control)"}, "[11]": {"conditions": "Rate 500 g/ha, Postemergence section of Table B, 0 to 10 scale (0 no effect, 10 complete control)"}}}
{"smiles": "CCN(CC)C(=O)n1oc(=O)n(-c2ccc(F)cc2)c1=O", "note": "[Compound 3]", "values": [{"measurement": "S. Flatsedge plant response rating", "setting": "smallflower flatsedge; [1]", "result": 0}, {"measurement": "S. Flatsedge plant response rating", "setting": "smallflower flatsedge; [2]", "result": 0}, {"measurement": "S. Flatsedge plant response rating", "setting": "smallflower flatsedge; [3]", "result": 0}, {"measurement": "B. signalgrass plant response rating", "setting": "surinam grass; [4]", "result": 0}, {"measurement": "B. signalgrass plant response rating", "setting": "surinam grass; [1]", "result": 0}, {"measurement": "Plant response rating, B. signalgrass", "setting": "surinam grass; [5]", "result": 0}, {"measurement": "Plant response rating, B. signalgrass", "setting": "surinam grass; [6]", "result": 0}, {"measurement": "B. signalgrass plant response rating", "setting": "surinam grass; [7]", "result": 0}, {"measurement": "B. signalgrass plant response rating", "setting": "surinam grass; [8]", "result": 0}, {"measurement": "B. signalgrass plant response rating", "setting": "surinam grass; [9]", "result": 0}, {"measurement": "Plant response rating, B. signalgrass", "setting": "surinam grass; [10]", "result": 0}, {"measurement": "Cocklebur plant response rating", "setting": "cocklebur; [4]", "result": 0}, {"measurement": "Cocklebur plant response rating", "setting": "cocklebur; [1]", "result": 2}, {"measurement": "Plant response rating, Cocklebur", "setting": "cocklebur; [5]", "result": 0}, {"measurement": "Plant response rating, Cocklebur", "setting": "cocklebur; [6]", "result": 0}, {"measurement": "Cocklebur plant response rating", "setting": "cocklebur; [7]", "result": 0}, {"measurement": "Cocklebur plant response rating", "setting": "cocklebur; [8]", "result": 0}, {"measurement": "Cocklebur plant response rating", "setting": "cocklebur; [9]", "result": 0}, {"measurement": "Plant response rating, Cocklebur", "setting": "cocklebur; [10]", "result": 0}, {"measurement": "Sugarbeets plant response rating", "setting": "sugar beet; [4]", "result": 0}, {"measurement": "Sugarbeets plant response rating", "setting": "sugar beet; [1]", "result": 0}, {"measurement": "Plant response rating, Sugarbeets", "setting": "sugar beet; [5]", "result": 0}, {"measurement": "Plant response rating, Sugarbeets", "setting": "sugar beet; [6]", "result": 0}, {"measurement": "Sugarbeets plant response rating", "setting": "sugar beet; [7]", "result": 0}, {"measurement": "Sugarbeets plant response rating", "setting": "sugar beet; [8]", "result": 0}, {"measurement": "Plant response rating, Sugarbeets", "setting": "sugar beet; [10]", "result": 0}, {"measurement": "Blackgrass plant response rating", "setting": "blackgrass; [4]", "result": 0}, {"measurement": "Blackgrass plant response rating", "setting": "blackgrass; [1]", "result": 3}, {"measurement": "Plant response rating, Blackgrass", "setting": "blackgrass; [5]", "result": 0}, {"measurement": "Plant response rating, Blackgrass", "setting": "blackgrass; [6]", "result": 0}, {"measurement": "Blackgrass plant response rating", "setting": "blackgrass; [7]", "result": 0}, {"measurement": "Blackgrass plant response rating", "setting": "blackgrass; [8]", "result": 0}, {"measurement": "Blackgrass plant response rating", "setting": "blackgrass; [9]", "result": 0}, {"measurement": "Plant response rating, Blackgrass", "setting": "blackgrass; [10]", "result": 0}, {"measurement": "Soybean plant response rating", "setting": "soybean; [4]", "result": 1}, {"measurement": "Soybean plant response rating", "setting": "soybean; [1]", "result": 2}, {"measurement": "Plant response rating, Soybean", "setting": "soybean; [5]", "result": 0}, {"measurement": "Plant response rating, Soybean", "setting": "soybean; [6]", "result": 0}, {"measurement": "Soybean plant response rating", "setting": "soybean; [7]", "result": 0}, {"measurement": "Soybean plant response rating", "setting": "soybean; [8]", "result": 0}, {"measurement": "Plant response rating, Soybean", "setting": "soybean; [10]", "result": 0}, {"measurement": "Wild oats plant response rating", "setting": "wild oat; [4]", "result": 0}, {"measurement": "Wild oats plant response rating", "setting": "wild oat; [1]", "result": 0}, {"measurement": "Plant response rating, Wild oats", "setting": "wild oat; [5]", "result": 0}, {"measurement": "Plant response rating, Wild oats", "setting": "wild oat; [6]", "result": 0}, {"measurement": "Wild oats plant response rating", "setting": "wild oat; [7]", "result": 0}, {"measurement": "Wild oats plant response rating", "setting": "wild oat; [8]", "result": 0}, {"measurement": "Plant response rating, Wild oats", "setting": "wild oat; [10]", "result": 0}, {"measurement": "Rice plant response rating", "setting": "rice; [1]", "result": 0}, {"measurement": "Rice plant response rating", "setting": "rice; [2]", "result": 0}, {"measurement": "Rice plant response rating", "setting": "rice; [11]", "result": 0}, {"measurement": "Rice plant response rating", "setting": "rice; [3]", "result": 0}, {"measurement": "Corn plant response rating", "setting": "corn; [4]", "result": 0}, {"measurement": "Corn plant response rating", "setting": "corn; [1]", "result": 0}, {"measurement": "Plant response rating, Corn", "setting": "corn; [5]", "result": 0}, {"measurement": "Plant response rating, Corn", "setting": "corn; [6]", "result": 0}, {"measurement": "Corn plant response rating", "setting": "corn; [7]", "result": 0}, {"measurement": "Corn plant response rating", "setting": "corn; [8]", "result": 0}, {"measurement": "Corn plant response rating", "setting": "corn; [9]", "result": 0}, {"measurement": "Plant response rating, Corn", "setting": "corn; [10]", "result": 0}, {"measurement": "Crabgrass plant response rating", "setting": "crabgrass; [4]", "result": 0}, {"measurement": "Crabgrass plant response rating", "setting": "crabgrass; [1]", "result": 7}, {"measurement": "Plant response rating, Crabgrass", "setting": "crabgrass; [5]", "result": 0}, {"measurement": "Plant response rating, Crabgrass", "setting": "crabgrass; [6]", "result": 0}, {"measurement": "Crabgrass plant response rating", "setting": "crabgrass; [7]", "result": 0}, {"measurement": "Crabgrass plant response rating", "setting": "crabgrass; [8]", "result": 0}, {"measurement": "Crabgrass plant response rating", "setting": "crabgrass; [9]", "result": 6}, {"measurement": "Plant response rating, Crabgrass", "setting": "crabgrass; [10]", "result": 2}, {"measurement": "Bedstraw plant response rating", "setting": "bedstraw; [4]", "result": 0}, {"measurement": "Bedstraw plant response rating", "setting": "bedstraw; [1]", "result": 0}, {"measurement": "Plant response rating, Bedstraw", "setting": "bedstraw; [5]", "result": 0}, {"measurement": "Plant response rating, Bedstraw", "setting": "bedstraw; [6]", "result": 0}, {"measurement": "Bedstraw plant response rating", "setting": "bedstraw; [7]", "result": 0}, {"measurement": "Bedstraw plant response rating", "setting": "bedstraw; [8]", "result": 0}, {"measurement": "Bedstraw plant response rating", "setting": "bedstraw; [9]", "result": 0}, {"measurement": "Plant response rating, Bedstraw", "setting": "bedstraw; [10]", "result": 0}, {"measurement": "Nutsedge plant response rating", "setting": "purple nutsedge; Rate 250 g/ha, scale 0 to 10, 0 no effect, 10 complete control", "result": 0}, {"measurement": "Nutsedge plant response rating", "setting": "purple nutsedge; Rate 1000 g/ha, scale 0 to 10 (0 no effect, 10 complete control)", "result": 0}, {"measurement": "Nutsedge plant response rating", "setting": "purple nutsedge; Rate 125 g/ha, scale 0 to 10, 0 no effect, 10 complete control", "result": 0}, {"measurement": "Nutsedge plant response rating", "setting": "purple nutsedge; Rate 500 g/ha, 0 to 10 scale (0 no effect, 10 complete control)", "result": 0}, {"measurement": "Ducksalad plant response rating", "setting": "duck salad; [1]", "result": 0}, {"measurement": "Ducksalad plant response rating", "setting": "duck salad; [2]", "result": 0}, {"measurement": "Ducksalad plant response rating", "setting": "duck salad; [11]", "result": 0}, {"measurement": "Ducksalad plant response rating", "setting": "duck salad; [3]", "result": 0}, {"measurement": "Barnyardgrass plant response rating", "setting": "bamyardgrass; [1]", "result": 0}, {"measurement": "Barnyardgrass plant response rating", "setting": "bamyardgrass; [2]", "result": 0}, {"measurement": "Barnyardgrass plant response rating", "setting": "bamyardgrass; [11]", "result": 0}, {"measurement": "Barnyardgrass plant response rating", "setting": "bamyardgrass; [3]", "result": 0}, {"measurement": "Wheat plant response rating", "setting": "wheat; [4]", "result": 0}, {"measurement": "Wheat plant response rating", "setting": "wheat; [1]", "result": 0}, {"measurement": "Plant response rating, Wheat", "setting": "wheat; [5]", "result": 0}, {"measurement": "Plant response rating, Wheat", "setting": "wheat; [6]", "result": 0}, {"measurement": "Wheat plant response rating", "setting": "wheat; [7]", "result": 0}, {"measurement": "Wheat plant response rating", "setting": "wheat; [8]", "result": 0}, {"measurement": "Plant response rating, Wheat", "setting": "wheat; [10]", "result": 0}, {"measurement": "Velvetleaf plant response rating", "setting": "velvetleaf; [4]", "result": 0}, {"measurement": "Velvetleaf plant response rating", "setting": "velvetleaf; [1]", "result": 0}, {"measurement": "Plant response rating, Velvetleaf", "setting": "velvetleaf; [5]", "result": 0}, {"measurement": "Plant response rating, Velvetleaf", "setting": "velvetleaf; [6]", "result": 0}, {"measurement": "Velvetleaf plant response rating", "setting": "velvetleaf; [7]", "result": 0}, {"measurement": "Velvetleaf plant response rating", "setting": "velvetleaf; [8]", "result": 0}, {"measurement": "Plant response rating, Velvetleaf", "setting": "velvetleaf; [10]", "result": 0}]}
